{"source": "patent US4575498A", "about": "“Method for restoring depleted purine nucleotide pools” (priority 1983, dated 1986)", "key": {"serum urate": {"test_system": "serum urate", "assay": "Serum urate concentrations", "assay_type": "in vivo, mongrel dogs", "settings": "for Serum urate concentration: P < 0.05 vs control", "method": "(§1) Animal Preparation--Seven adult mongrel dogs were anesthetized intramuscularly with 40 mg of morphine sulfate and intravenously with 80 mg/kg of chloralose, an endotraceal tube was inserted, and ventilation was maintained with an Emerson volume-cycled respirator and 100% oxygen. The heart was exposed through a left lateral thoracotomy, polyvinyl chloride catheters (3-mm outer diameter) were inserted into the left atrium and into the aorta through the right femoral artery, and a Statham TTQ electromagnetic flow meter probe was positioned around the ascending aorta. The aortic pressure catheter was connected to a Statham P23Db transducer (Statham Instruments, Inc., Oxnard, CA) with the zero reference at the midchest level. Aortic flow was measured with a Howell Instruments Series 1000 Flowmeter, and stroke volume and cardiac output were calculated from the aortic flow measurement. All hemodynamic data were monitored continuously throughout the course of the study. In 5 of the animals, the skin of the left dorsal hindlimb was opened and the gastrocnemius muscle was identified for subsequent tissue sampling.\nAfter hemodynamic parameters had stabilized, regional myocardial blood flow was measured by injecting radioactively labled microspheres. Tissue samples were obtained from the left ventricle and from the left gastrocnemius muscle. A venous blood sample was also obtained. AICAriboside (100 mM) was then infused into the left atrium at 1.9 ml/min. Repeat tissue samples were taken from the left ventricle at 15, 30 and 42 min. of infusion, and tissue samples were taken from the gastrocnemius muscle at 30 min. of infusion. Venous and arterial blood samples were also obtained at 42 min. of infusion, and regional myocardial blood flow was measured at 10 and 39 min. of AICAriboside infusion. AICAriboside infusion was terminated after 42 min., and tissue samples were taken from the left ventricle at 10, 20, 30 and 60 min. postinfusion and from the left gastrocnemius muscle at 2, 22 and 60 min. postinfusion. Venous blood samples were obtained at 10, 30 and 60 min. after AICAriboside infusion. In 4 of the 7 dogs, 400 mM formate was infused intravenously at the rate of 1.9 ml/min. for 42 min. prior to and during AICAriboside infusion. These same animals also received 6 mg of folinic acid as an intravenous bolus 30 min. prior to and 15 min. after initiating AICAriboside infusion.\nOther Methods--Serum urate was determined by the enzymatic spectrophotometric method as previously described in Liddle et al., J. Lab. Clin. Med., 54, 909-913 (1959)."}, "[1]": {"test_system": "cardiac and skeletal muscle", "assay": "Creatine phosphate content of cardiac and skeletal muscle", "assay_type": "in vivo, mongrel dogs", "settings": "throughout the study (6.8±0.4 and 10.6±0.5 μmol/g at beginning)", "method": "as §1, with “In 5 of the animals, the skin of the left dorsal hindlimb was opened and the gastrocnemius muscle was identified for subsequent tissue sampling.” left out\nAfter hemodynamic parameters had stabilized, regional myocardial blood flow was measured by injecting radioactively labled microspheres. […] Venous and arterial blood samples were also obtained at 42 min. of infusion, and regional myocardial blood flow was measured at 10 and 39 min. of AICAriboside infusion. […]"}, "myocardium": {"test_system": "myocardium", "assay": "Regional myocardial blood flow, coronary occlusion and reperfusion", "assay_type": "in vivo, dogs", "settings": "any time point", "method": "Catheters were placed in the left atrium and aorta, and a snare positioned around the left anterior descending coronary artery in 15 open-chest dogs. Regional myocardial blood flow was measured and transmural tissue samples were obtained using known techniques. Blood flow measurements and tissue samples were obtained prior to and just before release of a 12-minute coronary occlusion. The chest was closed and the animals allowed to awaken. Twenty-four hours later, the animals were anesthetized, the chest opened, blood flow measured, and tissue samples obtained. No hemodynamic measurements were made on the animals.\nIn seven animals, 200 mM AICAriboside (Sigma Chemical Co.) was infused into the left atrial catether at either 14 μmol/min (n=2) or 37 μmol/min (n=5) beginning with coronary occlusion and continuing for 24 hours. Eight control animals were infused with an equal volume of saline over 24 hours.\nAll comparisons between AICAriboside and saline treated animals were done by unpaired analyses."}, "cardiac muscle": {"test_system": "cardiac muscle", "assay": "AICAriboside infusion in normal myocardium: nucleotide, nucleoside and base content of cardiac muscle biopsies", "settings": "for TAN: total adenine nucleotide"}, "[2]": {"settings": "cardiac muscle, 10 min postinfusion"}, "[3]": {"settings": "cardiac muscle, 10 min postinfusion, P < 0.05 vs control"}, "[4]": {"settings": "cardiac muscle, 15 min of AICAriboside infusion"}, "[5]": {"settings": "cardiac muscle, 20 min postinfusion"}, "[6]": {"settings": "cardiac muscle, 20 min postinfusion, P < 0.05 vs control"}, "[7]": {"settings": "cardiac muscle, 30 min of AICAriboside infusion"}, "[8]": {"settings": "cardiac muscle, 30 min of AICAriboside infusion, P < 0.05 vs control"}, "[9]": {"settings": "cardiac muscle, 30 min postinfusion"}, "[10]": {"settings": "cardiac muscle, 30 min postinfusion, P < 0.05 vs control"}, "[11]": {"settings": "cardiac muscle, 42 min of AICAriboside infusion"}, "[12]": {"settings": "cardiac muscle, 60 min postinfusion"}}}
{"compound": "NC(=O)c1ncn([C@@H]2O[C@H](CO)[C@@H](O)[C@H]2O)c1N", "note": "[AICAriboside, 5-amino-4-imidazolecarboxamide riboside]", "values": [{"measurement": "Serum urate concentration", "setting": "serum urate; 10 min postinfusion", "result": "3.5 ± 0.5", "unit": "mg/dL"}, {"measurement": "Serum urate concentration", "setting": "serum urate; 30 min postinfusion", "result": "2.9 ± 0.2", "unit": "mg/dL"}, {"measurement": "Serum urate concentration", "setting": "serum urate; 42 min of AICAriboside infusion", "result": "3.5 ± 0.4", "unit": "mg/dL"}, {"measurement": "Serum urate concentration", "setting": "serum urate; 60 min postinfusion", "result": "2.40 ± 0.4", "unit": "mg/dL"}, {"measurement": "increase in mean serum urate concentration", "setting": "serum urate; following infusion of 8 mmol of AICAriboside", "result": 3.7, "unit": "fold"}, {"measurement": "creatine phosphate content", "setting": "[1]", "result": "did not vary significantly"}, {"measurement": "regional flow vs saline group", "setting": "myocardium", "result": "no differences"}, {"measurement": "myocardial content of CTP", "setting": "cardiac muscle; AICAriboside infusion", "result": "no detectable change"}, {"measurement": "mean content of AICAriboside in cardiac muscle greater than that of skeletal muscle", "setting": "cardiac muscle; after 30 min of infusion", "result": 66, "unit": "%"}, {"measurement": "adenylosuccinate in biopsies", "setting": "cardiac muscle; before, during or after infusion, lower limit of detection 3 nmol/g, wet weight", "result": "not detectable"}, {"measurement": "adenylate energy charge", "setting": "cardiac muscle; cardiac muscle, 0.929±0.003 before infusion, during course of experiment", "result": "did not vary"}, {"measurement": "ADP", "setting": "cardiac muscle; [2]", "result": "0.83 ± 0.05 μmol/g, wet weight"}, {"measurement": "AMP", "setting": "cardiac muscle; [2]", "result": "0.054 ± 0.007 μmol/g, wet weight"}, {"measurement": "Hyp (hypoxanthine)", "setting": "cardiac muscle; [2]", "result": "0.016 ± 0.008 μmol/g, wet weight"}, {"measurement": "Ino (inosine)", "setting": "cardiac muscle; [2]", "result": "0.009 ± 0.001 μmol/g, wet weight"}, {"measurement": "ATP", "setting": "cardiac muscle; [3]", "result": "6.07 ± 0.17 μmol/g, wet weight"}, {"measurement": "IMP", "setting": "cardiac muscle; [3]", "result": "0.018 ± 0.003 μmol/g, wet weight"}, {"measurement": "ADP", "setting": "cardiac muscle; [4]", "result": "0.77 ± 0.06 μmol/g, wet weight"}, {"measurement": "AMP", "setting": "cardiac muscle; [4]", "result": "0.056 ± 0.008 μmol/g, wet weight"}, {"measurement": "ATP", "setting": "cardiac muscle; [4]", "result": "5.77 ± 0.24 μmol/g, wet weight"}, {"measurement": "IMP", "setting": "cardiac muscle; [4]", "result": "0.020 ± 0.007 μmol/g, wet weight"}, {"measurement": "ADP", "setting": "cardiac muscle; [5]", "result": "0.81 ± 0.04 μmol/g, wet weight"}, {"measurement": "AMP", "setting": "cardiac muscle; [5]", "result": "0.054 ± 0.005 μmol/g, wet weight"}, {"measurement": "Hyp (hypoxanthine)", "setting": "cardiac muscle; [5]", "result": "0.007 ± 0.002 μmol/g, wet weight"}, {"measurement": "IMP", "setting": "cardiac muscle; [5]", "result": "0.017 ± 0.005 μmol/g, wet weight"}, {"measurement": "Ino (inosine)", "setting": "cardiac muscle; [5]", "result": "0.007 ± 0.001 μmol/g, wet weight"}, {"measurement": "ATP", "setting": "cardiac muscle; [6]", "result": "5.83 ± 0.14 μmol/g, wet weight"}, {"measurement": "ADP", "setting": "cardiac muscle; [7]", "result": "0.82 ± 0.03 μmol/g, wet weight"}, {"measurement": "AMP", "setting": "cardiac muscle; [7]", "result": "0.050 ± 0.005 μmol/g, wet weight"}, {"measurement": "Hyp (hypoxanthine)", "setting": "cardiac muscle; [7]", "result": "0.013 ± 0.006 μmol/g, wet weight"}, {"measurement": "IMP", "setting": "cardiac muscle; [7]", "result": "0.030 ± 0.021 μmol/g, wet weight"}, {"measurement": "Ino (inosine)", "setting": "cardiac muscle; [7]", "result": "0.012 ± 0.001 μmol/g, wet weight"}, {"measurement": "ATP", "setting": "cardiac muscle; [8]", "result": "5.89 ± 0.16 μmol/g, wet weight"}, {"measurement": "ADP", "setting": "cardiac muscle; [9]", "result": "0.84 ± 0.03 μmol/g, wet weight"}, {"measurement": "AMP", "setting": "cardiac muscle; [9]", "result": "0.055 ± 0.006 μmol/g, wet weight"}, {"measurement": "Hyp (hypoxanthine)", "setting": "cardiac muscle; [9]", "result": "0.003 ± 0.002 μmol/g, wet weight"}, {"measurement": "Ino (inosine)", "setting": "cardiac muscle; [9]", "result": "0.009 ± 0.002 μmol/g, wet weight"}, {"measurement": "ATP", "setting": "cardiac muscle; [10]", "result": "5.98 ± 0.07 μmol/g, wet weight"}, {"measurement": "IMP", "setting": "cardiac muscle; [10]", "result": "0.016 ± 0.003 μmol/g, wet weight"}, {"measurement": "ADP", "setting": "cardiac muscle; [11]", "result": "0.77 ± 0.03 μmol/g, wet weight"}, {"measurement": "AMP", "setting": "cardiac muscle; [11]", "result": "0.053 ± 0.007 μmol/g, wet weight"}, {"measurement": "ATP", "setting": "cardiac muscle; [11]", "result": "5.77 ± 0.28 μmol/g, wet weight"}, {"measurement": "IMP", "setting": "cardiac muscle; cardiac muscle, 42 min of AICAriboside infusion, P < 0.05 vs control", "result": "0.019 ± 0.006 μmol/g, wet weight"}, {"measurement": "ADP", "setting": "cardiac muscle; [12]", "result": "0.82 ± 0.04 μmol/g, wet weight"}, {"measurement": "AMP", "setting": "cardiac muscle; [12]", "result": "0.052 ± 0.006 μmol/g, wet weight"}, {"measurement": "ATP", "setting": "cardiac muscle; [12]", "result": "5.72 ± 0.27 μmol/g, wet weight"}, {"measurement": "Hyp (hypoxanthine)", "setting": "cardiac muscle; [12]", "result": "0.001 ± 0.001 μmol/g, wet weight"}, {"measurement": "Ino (inosine)", "setting": "cardiac muscle; [12]", "result": "0.006 ± 0.001 μmol/g, wet weight"}, {"measurement": "IMP", "setting": "cardiac muscle; cardiac muscle, 60 min postinfusion, P < 0.05 vs control", "result": "0.017 ± 0.003 μmol/g, wet weight"}, {"measurement": "increase in IMP content", "setting": "cardiac muscle; cardiac muscle, AICAriboside infusion", "result": "3-4 fold"}, {"measurement": "maximum UTP content", "setting": "cardiac muscle; cardiac muscle, from basal 0.126±0.009, p<0.005", "result": "0.157±0.006 μmol/g, wet weight"}, {"measurement": "guanine nucleotide content (GDP+GTP)", "setting": "cardiac muscle; cardiac muscle, significant at one time point only", "result": "tended to increase"}, {"measurement": "dogs with guanine nucleotide pool remaining elevated", "setting": "cardiac muscle; cardiac muscle, up to 60 min after infusion discontinued", "result": "6 of 7"}, {"measurement": "adenosine content", "setting": "cardiac muscle; cardiac or skeletal muscle, during infusion", "result": "did not increase"}, {"measurement": "AMP and ADP content change", "setting": "cardiac muscle; cardiac tissue, any time point", "result": "did not change significantly"}, {"measurement": "increased ATP content", "setting": "cardiac muscle; cardiac tissue, from 5.55±0.17, p<0.02", "result": "6.07±0.17 μmol/g, wet weight"}, {"measurement": "accumulation of AICAriboside-TP", "setting": "cardiac muscle; cardiac vs skeletal muscle, quantitated with extinction coefficient of AICAR", "result": "greater in cardiac muscle"}, {"measurement": "maximum TAN (total adenine nucleotide)", "setting": "cardiac muscle; heart muscle, from basal 6.40±0.20, p<0.005", "result": "6.96±0.20 μmol/g, wet weight"}, {"measurement": "content of NAD^+", "setting": "cardiac muscle; heart, throughout infusion, did not vary", "result": "0.64 ± 0.01", "unit": "µmol/g"}, {"measurement": "UTP pool increase", "setting": "cardiac muscle; myocardial cells, following AICAriboside infusion", "result": 25, "unit": "%"}, {"measurement": "content of inosine and hypoxanthine", "setting": "cardiac muscle; myocardial, throughout the study", "result": "only minimally increased"}, {"measurement": "TAN", "setting": "cardiac muscle; [3]", "result": "6.96 ± 0.20 μmol/g, wet weight"}, {"measurement": "TAN", "setting": "cardiac muscle; [4]", "result": "6.59 ± 0.29 μmol/g, wet weight"}, {"measurement": "TAN", "setting": "cardiac muscle; [6]", "result": "6.70 ± 0.10 μmol/g, wet weight"}, {"measurement": "TAN", "setting": "cardiac muscle; [8]", "result": "6.77 ± 0.16 μmol/g, wet weight"}, {"measurement": "TAN", "setting": "cardiac muscle; [10]", "result": "6.87 ± 0.10 μmol/g, wet weight"}, {"measurement": "TAN", "setting": "cardiac muscle; [11]", "result": "6.59 ± 0.27 μmol/g, wet weight"}, {"measurement": "TAN", "setting": "cardiac muscle; [12]", "result": "6.59 ± 0.24 μmol/g, wet weight"}]}
